According to patent publication EP4813403A1, “USE OF GLP-1R/GIPR DOUBLE-TARGET AGONIST IN PREPARING ANIMAL DRUG” (Hangzhou Zhongmeihuadong Pharmaceutical Co., Ltd., priority 2023, dated 2025):

Assays:
[1] = Pharmacokinetics following single administration in SD rats; settings: male, Sprague-Dawley, rat, in vivo, sc
Description: The compound was administrated to male SD rats (230-268 g, n=3) at a dose of 50.0 nmol/kg (s.c.) or 25.0 nmol/kg (i.v.). […] 30.0 μL of thawed plasma sample was taken. 150 μL of acetonitrile solution (containing 5 ng·mL^-1 Verapamil , 50 ng·mL^-1 Glibenclamide, 200 ng·mL^-1 Tolbutamide and 200 ng·mL^-1 Diclofenac) were added to precipitate protein. The mixture was vortexed for 5 minutes, and centrifuged at 3700 rpm for 8 minutes. 70.0 μL of the supernatant was taken, into which 70.0 μL of 0.5% aqueous formic acid solution was added. The mixture was vortexed for 5 minutes. 15 μL of the mixture solution was sampled and injected into the LC-MS/MS to determine the drug concentration in plasma. 20.0 μL of thawed plasma sample was taken. 60 μL of acetonitrile solution (containing 5 ng·mL^-1 Verapamil, 50 ng·mL^-1 Glibenclamide, 200 ng·mL^-1 Tolbutamide and 200 ng·mL^-1 Diclofenac) were added to precipitate protein. […] The mixture was vortexed for 10 minutes. 10.0 μL of the mixture solution was sampled and injected into the LC-MS/MS to determine the drug concentration in plasma. 30.0 μL of thawed plasma sample was taken. 150 μL of acetonitrile solution (containing 5 ng·mL^-1 Verapamil, 50 ng·mL^-1 Glibenclamide, 200 ng·mL^-1 Tolbutamide and 200 ng·mL^-1 Diclofenac) were added to precipitate protein. The mixture was vortexed for 5 minutes, and centrifuged at 3700 rpm for 8 minutes. 70.0 μL of the supernatant was taken, into which 70.0 μL of 0.5% aqueous formic acid solution was added. The mixture was vortexed for 5 minutes. 10.0 μL of the mixture solution was sampled and injected into the LC-MS/MS to determine the drug concentration in plasma. […] Table 5 Pharmacokinetic Parameters after Subcutaneous Injection of Different Polypeptide Compounds to Rats

db/db mice = assay: Pharmacodynamic effects in db/db mice, single subcutaneous administration (blood glucose); type: in vivo; settings: single s.c. 10 nmol/kg
Description: In this study, 8-9 week old male db/db mice were used. The db/db mice were placed in an individual ventilated cage (IVC) facility with a controlled temperature (20-26°C) and humidity (40-70%) and a controlled 12h:12 h light-dark cycle. The mice can receive food and water ad libitum. Blood was sampled at the tail tip, and the random base blood glucose was measured by a Roche blood glucose meter. The mice were randomly divided into groups according to the random initial fasting blood glucose and initial body weight (n=6/group), and each group had similar body weight and blood glucose.
After a single subcutaneous administration, the random base blood glucoses were recorded at the set time point (0 to 120 hours, the recording of the random base blood glucose was stopped until there was no difference between the random base blood glucose of the compound and that of the vehicle group), and the daily body weight and food intake were also recorded. The data results were statistically analyzed using GraphPad Prism8, and the statistical differences among the groups were analyzed following a T-Test. Significant differences were identified at p<0.05.
Hypoglycemic Duration: the longest time during which the random base blood glucose of the compound has a significant difference (p<0.05) vs. the vehicle group. Table 13. Hypoglycemic Duration of the Compounds

human GIP Receptor = molecular target: T1, human GIP Receptor (Homo sapiens, UniProt P48546); assay: In vitro binding activity to human GIP receptor ([125I]GIP displacement, crude cell membranes); settings: ratio of the Ki value of the endogenous ligand to the Ki value of the test compound; larger ratio = stronger binding
T1 construct: expressed in transfected cells
T1 sequence (P48546 22-466): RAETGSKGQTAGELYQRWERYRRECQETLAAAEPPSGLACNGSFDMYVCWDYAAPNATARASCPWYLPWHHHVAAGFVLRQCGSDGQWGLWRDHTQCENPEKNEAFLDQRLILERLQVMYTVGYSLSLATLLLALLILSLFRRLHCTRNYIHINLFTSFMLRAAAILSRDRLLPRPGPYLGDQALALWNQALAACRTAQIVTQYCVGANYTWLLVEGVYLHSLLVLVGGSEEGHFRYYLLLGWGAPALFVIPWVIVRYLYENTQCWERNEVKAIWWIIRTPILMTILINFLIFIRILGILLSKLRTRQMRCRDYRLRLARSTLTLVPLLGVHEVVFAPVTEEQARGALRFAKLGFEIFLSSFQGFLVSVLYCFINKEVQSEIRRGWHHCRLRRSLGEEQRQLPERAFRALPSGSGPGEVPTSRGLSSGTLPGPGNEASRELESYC
Description: (§1) 89 µL of membrane dissolved in binding buffer (50 mM Hepes, pH 7.4, 5 mM MgCl2 , 5 mM EDTA, 0.005% TWEEN, 0.005% HSA) was transferred to a 96-well test plate (5 µg/well). The compound was serially diluted in DMSO, and then, 1 µL of the diluted compound or 100% DMSO was added to the test plate containing the membrane solution. 10 µL of [^125I] […] The test plate was left at room temperature for 90 minutes. The membrane complexes were harvested into a GF/B plate pre-coated with 0.5% PEI by using a Cell Harvester, and washed for 3 times with 500 µL of pre-cooled elution buffer (50 mM Hepes, pH 7.4, 500 mM NaCl) at 4°C. After drying at 37°C for 2 hours, 50 µL of scintillation fluid was added to each well. The plate was read with a MicroBeta2 scintillation counter after sealing and settling for at least 1 hour so as to determine the membrane bound radioligand level.
hGIP and the compound of the present invention were dissolved in DMSO and stored at -80°C. 98 µL of membrane dissolved in binding buffer (50 mM HEPES pH 7.4, 5 mM MgCl2, 1 mM CaCl2, 0.1% BSA, 0.005% Tween-20) was transferred to a 96-well test plate (15 µg/well). The compound was serially diluted in DMSO, and then, 2 µL of the diluted compounds or 100% DMSO was added to the test plate containing the membrane solution. […] The test plate was left at room temperature for 90 minutes. The membrane complexes were harvested into a GF/B plate pre-coated with 0.5% PEI by using a Cell Harvester, and washed for 3 times with 500 µL of pre-cooled elution buffer (50 mM Tris-HCl pH 7.4, 125 mM NaCl) at 4°C. After drying at 37°C for 2 hours, 50 µL of scintillation fluid was added to each well. The plate was read with a MicroBeta2 scintillation counter after sealing and settling for at least 1 hour so as to determine the membrane bound radioligand level.
The IC50 concentration was converted to Ki (Ki was the inhibition constant) using the Cheng-Prusoff equation. Table 1. Receptor Binding Affinity, Ki Ratio

human GLP-1R = human GLP-1R (Homo sapiens, UniProt P43220); assay: In vitro binding activity to human GLP-1 receptor ([125I]GLP-1 displacement, crude cell membranes); set-up: expressed in transfected cells; settings: ratio of the Ki value of the endogenous ligand to the Ki value of the test compound; larger ratio = stronger binding
Sequence of human GLP-1R (P43220 24-463): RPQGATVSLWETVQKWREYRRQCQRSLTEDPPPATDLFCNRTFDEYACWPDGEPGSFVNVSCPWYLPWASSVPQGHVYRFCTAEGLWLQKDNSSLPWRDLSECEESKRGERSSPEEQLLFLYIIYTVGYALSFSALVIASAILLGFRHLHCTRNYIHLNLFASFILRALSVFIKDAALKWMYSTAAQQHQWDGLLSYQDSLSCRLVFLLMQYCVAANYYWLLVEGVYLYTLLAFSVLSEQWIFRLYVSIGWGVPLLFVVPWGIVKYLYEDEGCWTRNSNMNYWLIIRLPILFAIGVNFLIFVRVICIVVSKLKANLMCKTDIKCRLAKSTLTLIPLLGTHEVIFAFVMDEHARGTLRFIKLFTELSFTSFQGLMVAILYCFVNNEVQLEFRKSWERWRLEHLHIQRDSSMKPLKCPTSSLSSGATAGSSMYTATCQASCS
Description: as §1
The IC50 concentration was converted to Ki (Ki was the inhibition constant) using the Cheng-Prusoff equation.

[2] = Group 1, longest time with p<0.05 vs. vehicle

Structure (SMILES)	Tmax [1] [h]	half-life [1] [h]	hypoglycemic duration longer than that of Tirzepatide (db/db mice)	inhibition of the blood glucose AUC, times of that of P001 (db/db mice) [times]	Hypoglycemic Duration (db/db mice; [2]) [h]	GIPR Ki ratio (human GIP Receptor)	GLP-1R Ki ratio (human GLP-1R)	Hypoglycemic Duration (db/db mice; Group 2, longest time with p<0.05 vs. vehicle) [h]
CC[C@H](C)[C@H](NC(=O)C(C)(C)NC(=O)[C@H](Cc1ccc(O)cc1)NC(=O)[C@H](CC(=O)O)NC(=O)[C@H](CO)NC(=O)[C@@H](NC(=O)C(C)(Cc1ccccc1)NC(=O)[C@@H](NC(=O)CNC(=O)[C@H](CCC(=O)O)NC(=O)C(C)(C)NC(=O)[C@@H](N)Cc1ccc(O)cc1)[C@@H](C)O)[C@@H](C)O)C(=O)NC(C)(C)C(=O)N[C@@H](CC(C)C)C(=O)N[C@@H](CC(=O)O)C(=O)N[C@@H](CCCCN)C(=O)N[C@@H](CCC(N)=O)C(=O)N[C@@H](C)C(=O)N[C@@H](CCC(N)=O)C(=O)N[C@@H](C)C(=O)N[C@@H](CCC(=O)O)C(=O)N[C@@H](Cc1ccccc1)C(=O)N[C@H](C(=O)N[C@@H](CCCCN)C(=O)N[C@@H](Cc1c[nH]c2ccccc12)C(=O)N[C@@H](CC(C)C)C(=O)N[C@@H](CC(C)C)C(=O)N[C@@H](CCCCNC(=O)COCCOCCNC(=O)COCCOCCNC(=O)CC[C@H](NC(=O)CCCCCCCCCCCCCCCCC(=O)O)C(=O)O)C(=O)NCC(=O)NCC(=O)N1CCC[C@H]1C(=O)N[C@@H](CO)C(=O)N[C@@H](CO)C(=O)NCC(=O)N[C@@H](C)C(=O)N1CCC[C@H]1C(=O)N1CCC[C@H]1C(=O)N1CCC[C@H]1C(=O)N[C@@H](CO)C(=O)N[C@@H](CCCCN)C(N)=O)C(C)C (stereo partly shown) [Compound P008]	13.3 ± 9.24	18.7 ± 4.82	more than 16 hours	2.3	72	–	–	–
CC[C@H](C)[C@H](NC(=O)C(C)(C)NC(=O)[C@H](Cc1ccc(O)cc1)NC(=O)[C@H](CC(=O)O)NC(=O)[C@H](CO)NC(=O)[C@@H](NC(=O)C(C)(Cc1ccccc1)NC(=O)[C@@H](NC(=O)CNC(=O)[C@H](CCC(=O)O)NC(=O)C(C)(C)NC(=O)[C@@H](N)Cc1ccc(O)cc1)[C@@H](C)O)[C@@H](C)O)C(=O)NC(C)(C)C(=O)N[C@@H](CC(C)C)C(=O)N[C@@H](CC(=O)O)C(=O)N[C@@H](CCCCN)C(=O)N[C@@H](CCC(N)=O)C(=O)N[C@@H](C)C(=O)N[C@@H](CCC(N)=O)C(=O)N[C@@H](C)C(=O)N[C@@H](CCC(=O)O)C(=O)N[C@@H](Cc1ccccc1)C(=O)N[C@H](C(=O)N[C@@H](CCCCN)C(=O)N[C@@H](Cc1c[nH]c2ccccc12)C(=O)N[C@@H](CC(C)C)C(=O)N[C@@H](CC(C)C)C(=O)N[C@@H](CCCCNC(=O)COCCOCCNC(=O)COCCOCCNC(=O)COCCOCCNC(=O)CC[C@H](NC(=O)CCCCCCCCCCCCCCCCC(=O)O)C(=O)O)C(=O)NCC(=O)NCC(=O)N1CCC[C@H]1C(=O)N[C@@H](CO)C(=O)N[C@@H](CO)C(=O)NCC(=O)N[C@@H](C)C(=O)N1CCC[C@H]1C(=O)N1CCC[C@H]1C(=O)N1CCC[C@H]1C(=O)N[C@@H](CO)C(=O)N[C@@H](CCCCN)C(N)=O)C(C)C (stereo partly shown) [Compound P019]	13.3 ± 9.24	10.9 ± 1.92	–	2.2	56	0.09	0.93	–
CC[C@H](C)[C@H](NC(=O)C(C)(C)NC(=O)[C@H](Cc1ccc(O)cc1)NC(=O)[C@H](CC(=O)O)NC(=O)[C@H](CO)NC(=O)[C@@H](NC(=O)C(C)(Cc1ccccc1)NC(=O)[C@@H](NC(=O)CNC(=O)[C@H](CCC(=O)O)NC(=O)C(C)(C)NC(=O)[C@@H](N)Cc1ccc(O)cc1)[C@@H](C)O)[C@@H](C)O)C(=O)NC(C)(C)C(=O)N[C@@H](CC(C)C)C(=O)N[C@@H](CC(=O)O)C(=O)N[C@@H](CCCCN)C(=O)N[C@@H](CCC(N)=O)C(=O)N[C@@H](C)C(=O)N[C@@H](CCC(N)=O)C(=O)N[C@@H](C)C(=O)N[C@@H](CCC(=O)O)C(=O)N[C@@H](Cc1ccccc1)C(=O)N[C@H](C(=O)N[C@@H](CCCCNC(=O)COCCOCCNC(=O)COCCOCCNC(=O)CC[C@H](NC(=O)CC[C@H](NC(=O)CC[C@H](NC(=O)CCCCCCCCCCCCCCCCC(=O)O)C(=O)O)C(=O)O)C(=O)O)C(=O)N[C@@H](Cc1c[nH]c2ccccc12)C(=O)N[C@@H](CC(C)C)C(=O)N[C@@H](CC(C)C)C(=O)N[C@@H](CCCCN)C(=O)NCC(=O)NCC(=O)N1CCC[C@H]1C(=O)N[C@@H](CO)C(=O)N[C@@H](CO)C(=O)NCC(=O)N[C@@H](C)C(=O)N1CCC[C@H]1C(=O)N1CCC[C@H]1C(=O)N1CCC[C@H]1C(=O)N[C@@H](CO)C(=O)N[C@@H](CCCCN)C(N)=O)C(C)C (stereo partly shown) [Compound P015]	24	16.1 ± 1.21	–	–	–	–	0.17	32
CC[C@H](C)[C@H](NC(=O)C(C)(C)NC(=O)[C@H](Cc1ccc(O)cc1)NC(=O)[C@H](CC(=O)O)NC(=O)[C@H](CO)NC(=O)[C@@H](NC(=O)C(C)(Cc1ccccc1)NC(=O)[C@@H](NC(=O)CNC(=O)[C@H](CCC(=O)O)NC(=O)C(C)(C)NC(=O)[C@@H](N)Cc1ccc(O)cc1)[C@@H](C)O)[C@@H](C)O)C(=O)NC(C)(C)C(=O)N[C@@H](CC(C)C)C(=O)N[C@@H](CC(=O)O)C(=O)N[C@@H](CCCCN)C(=O)N[C@@H](CCC(N)=O)C(=O)N[C@@H](C)C(=O)N[C@@H](CCC(N)=O)C(=O)N[C@@H](C)C(=O)N[C@@H](CCC(=O)O)C(=O)N[C@@H](Cc1ccccc1)C(=O)N[C@H](C(=O)N[C@@H](CCCCNC(=O)COCCOCCNC(=O)COCCOCCNC(=O)CC[C@H](NC(=O)CCCCCCCCCCCCCCCCC(=O)O)C(=O)O)C(=O)N[C@@H](Cc1c[nH]c2ccccc12)C(=O)N[C@@H](CC(C)C)C(=O)N[C@@H](CC(C)C)C(=O)N[C@@H](CCCCN)C(=O)NCC(=O)NCC(=O)N1CCC[C@H]1C(=O)N[C@@H](CO)C(=O)N[C@@H](CO)C(=O)NCC(=O)N[C@@H](C)C(=O)N1CCC[C@H]1C(=O)N1CCC[C@H]1C(=O)N1CCC[C@H]1C(=O)N[C@@H](CO)C(=O)N[C@@H](CCCCN)C(N)=O)C(C)C (stereo partly shown) [Compound P007]	7.33 ± 1.15	15 ± 2.89	–	–	56	–	0.47	–
